The text below walks through data of patent US4707475A, “Agent for lowering serum prolactin levels” (priority 1985, dated 1987).

Each structure is given as a SMILES string.

Data set [1] relates to dopamine autoreceptors (DA-autoreceptors). Conditions: cited from earlier work; for selectivity as DA-autoreceptor agonist: compared with B-HT 920, literature.
Another data set deals with prolactin. Conditions: Gudelsky 1983; cited from earlier work.
A further data set has as its system DA-receptors. Conditions: cited from earlier work; for action as DA agonist: Gudelsky et al.
The test system of another data set is prolactin level. In words: Prolactin level in blood of 6 healthy male subjects after 150 μg B-HT 920 (PROLRIA-100 radioimmunological method). The format is in vivo, healthy male subjects (human). The arrangement: unit not given here. The protocol:
The compound B-HT 920 is tested for its effect on PRL-reduction as follows. The tests are carried out with 6 healthy male subjects ranging in age from 24 to 34, each subject being given 150 μg of B-HT 920. Blood samples are taken from each subject at intervals of 0, 1, 2, 3 and 5 hours. The prolactin level in the sample is determined by the known PROLRIA-100 radioimmunological method of the National Insitute of the Radioelements, 6220 Fleurs, Belgium. The following table contains the results found for each subject at the 1 hour intervals shown.

Data set [2] concerns endogenous dopamine synthesis in the brain. To be noted: in vivo, Anden et al. 1983; cited from earlier work.
For a further data set, the system named is prolactin (PRL). In words: Lowering of blood and serum levels of prolactin (general statement). Conditions: in vivo.
Data set [3] in a line: Tolerability (general statement). Conditions: in vivo.

With `CCCN1CCCC(c2cccc(O)c2)C1` (stereo not shown) [3-PPP], in data set [1], the “selectivity as DA-autoreceptor agonist” value was “not selectively active as DA-autoreceptor agonists”. Also, the prolactin inhibiting activity entry in the data set on prolactin was “prolactin inhibiting activity”. In the data set with DA-receptors, the “action as DA agonist” value is “act preferentially as DA agonists”.
For `C=CCN1CCc2nc(N)sc2CC1.Cl.Cl` [B-HT 920, 6-allyl-2-amino-5,6,7,8-tetrahydro-4H-thiazolo-[4,5-d]azepine dihydrochloride], the prolactin level in the data set with prolactin level (subject 1, 1 hour) is reported as 2.56; with prolactin level (subject 1, 2 hours) it was 0.52; in the data set with prolactin level (subject 1, 3 hours) it was 2.52; in the data set with prolactin level (subject 1, 5 hours), 3.26; in the data set with prolactin level (subject 1, time 0), 3.33; in the data set with prolactin level (subject 2, 1 hour), 2.85. In addition, the prolactin level with prolactin level (subject 2, 2 hours) turned out to be 0.69; with prolactin level (subject 2, 3 hours), 0.52; in the data set on prolactin level (subject 2, 5 hours), 2.25; with prolactin level (subject 2, time 0) it was 3.86; in the data set with prolactin level (subject 3, 1 hour) it was 4.15; with prolactin level (subject 3, 2 hours), 4.92. The prolactin level worked out at 1.85 in the data set with prolactin level (subject 3, 5 hours); 4.22 with prolactin level (subject 3, time 0); 4.52 with prolactin level (subject 4, 1 hour); 7.89 in the data set on prolactin level (subject 4, 2 hours); 4.11 in the data set on prolactin level (subject 4, 5 hours); 5.04 in the data set on prolactin level (subject 4, time 0). The prolactin level with prolactin level (subject 5, 1 hour) came out at 7.19; in the data set with prolactin level (subject 5, 2 hours), 1.37; in the data set on prolactin level (subject 5, 3 hours) it was 3.43; in the data set on prolactin level (subject 5, 5 hours) it was 2.89; in the data set on prolactin level (subject 5, time 0), 5.00; in the data set on prolactin level (subject 6, 1 hour) it was 7.59. Also, the prolactin level is listed as 1.57 in the data set on prolactin level (subject 6, 2 hours); 4.33 in the data set on prolactin level (subject 6, 5 hours); 6.59 in the data set on prolactin level (subject 6, time 0). For the same compound, the “effect on dopamine autoreceptors” value in data set [1] (Anden et al. 1982) is listed as “selective agonistic effect on dopamine autoreceptors”. The “effect on endogenous dopamine synthesis” value in data set [2] is given as “inhibits endogenous dopamine synthesis in the brain”.
Take `CN(C)C1CCc2cc(O)c(O)cc2C1` (stereo not shown) [TL-99]: in data set [1], the “selectivity as DA-autoreceptor agonist” value is “not selectively active as DA-autoreceptor agonists”. The prolactin inhibiting activity result in the data set on prolactin is reported as “prolactin inhibiting activity”. For the same compound, the “action as DA agonist” value in the data set with DA-receptors is on record as “act preferentially as DA agonists”. The postsynaptic activity result in the data set on DA-receptors (effect on the DA-receptors, Pastor et al. 1983) was “possibly has a postsynaptic activity”.
As to `CN1CCc2cccc3c2[C@H]1Cc1ccc(O)c(O)c1-3` [apomorphine], the “selectivity as DA-autoreceptor agonist” value in data set [1] is reported as “not selectively active as DA-autoreceptor agonists”. Further, in the data set with DA-receptors (well known), the “action on DA-receptors and DA-autoreceptors” value is “acts both on DA-receptors and also on DA-autoreceptors”.
On to `C=CCN1CCc2nc(N)sc2CC1` [compound A, 6-allyl-2-amino-5,6,7,8-tetrahydro-4H-thiazolo-[4,5-d]azepine], for which the “effect on blood and serum levels of prolactin (PRL)” value with prolactin (PRL) was “lower the blood and serum levels of prolactin (PRL)”. For the same compound, in data set [3], the tolerability entry is recorded as “well tolerated”.
